According to US9730944B2, “Antiviral activity of novel bicyclic heterocycles” (priority 2010, dated 2017):
≈ marks a conversion by molar mass, not a printed value.

How the values were obtained:
hRV-2 = experiment: Rhinovirus type 2 antiviral assay in Hela Rh cells, MTS readout; assay type: cell-based, Human rhinovirus; conditions: Rhinovirus A, HRV2, HeLa Rh, Hela Rh cells; read-out: hRV-2 EC50
hRV-45 = experiment: Rhinovirus type 45 antiviral assay in Hela Rh cells, MTS readout; assay type: cell-based, Human rhinovirus; conditions: Human rhinovirus sp., HRV45, HeLa Rh, Hela Rh cells; read-out: hRV-45 EC50
hRV-42 = experiment: Rhinovirus type 42 antiviral assay in Hela Rh cells, MTS readout; assay type: cell-based, Human rhinovirus; conditions: Human rhinovirus sp., HRV42, HeLa Rh, Hela Rh cells; read-out: hRV-42 EC50
hRV-39 = experiment: Rhinovirus type 39 antiviral assay in Hela Rh cells, MTS readout; assay type: cell-based, Human rhinovirus; conditions: Human rhinovirus sp., HRV39, HeLa Rh, Hela Rh cells; read-out: hRV-39 EC50
hRV-41 = experiment: Rhinovirus type 41 antiviral assay in Hela Rh cells, MTS readout; assay type: cell-based, Human rhinovirus; conditions: Human rhinovirus sp., HRV41, HeLa Rh, Hela Rh cells; read-out: hRV-41 EC50
hRV-15 = experiment: Rhinovirus type 15 antiviral assay in Hela Rh cells, MTS readout; assay type: cell-based, Human rhinovirus; conditions: Human rhinovirus sp., HRV15, HeLa Rh, Hela Rh cells; read-out: hRV-15 EC50
hRV-14 = experiment: Rhinovirus type 14 antiviral assay in Hela Rh cells, MTS readout; assay type: cell-based, Human rhinovirus; conditions: Rhinovirus B, HRV14, HeLa Rh, Hela Rh cells; read-out: hRV-14 EC50
hRV-9 = experiment: Rhinovirus type 9 antiviral assay in Hela Rh cells, MTS readout; assay type: cell-based, Human rhinovirus; conditions: Human rhinovirus sp., HRV9, HeLa Rh, Hela Rh cells; read-out: hRV-9 EC50
hRV-86 = experiment: Rhinovirus type 86 antiviral assay in Hela Rh cells, MTS readout; assay type: cell-based, Human rhinovirus; conditions: Human rhinovirus sp., HRV86, HeLa Rh, Hela Rh cells; read-out: hRV-86 EC50
hRV-72 = experiment: Rhinovirus type 72 antiviral assay in Hela Rh cells, MTS readout; assay type: cell-based, Human rhinovirus; conditions: Human rhinovirus sp., HRV72, HeLa Rh, Hela Rh cells; read-out: hRV-72 EC50
hRV-29 = experiment: Rhinovirus type 29 antiviral assay in Hela Rh cells, MTS readout; assay type: cell-based; conditions: Human rhinovirus sp., HRV29, HeLa Rh, Hela Rh cells; read-out: hRV-29 EC50
hRV-63 = experiment: Rhinovirus type 63 antiviral assay in Hela Rh cells, MTS readout; assay type: cell-based, Human rhinovirus; conditions: Human rhinovirus sp., HRV63, HeLa Rh, Hela Rh cells; read-out: hRV-63 EC50
hRV-70 = experiment: Rhinovirus type 70 antiviral assay in Hela Rh cells, MTS readout; assay type: cell-based, Human rhinovirus; conditions: Human rhinovirus sp., HRV70, HeLa Rh, Hela Rh cells; read-out: hRV-70 EC50
hRV-85 = experiment: Rhinovirus type 85 antiviral assay in Hela Rh cells, MTS readout; assay type: cell-based, Human rhinovirus; conditions: Human rhinovirus sp., HRV85, HeLa Rh, Hela Rh cells; read-out: hRV-85 EC50
[1] = Cytostatic/cytotoxic effect in Hela Rh cells (rhinovirus methodology, MTS); conditions: human, CC50, Hela Rh cells

Row | SMILES | EC50 (hRV-2) [µg/mL] | EC50 (hRV-45) [µg/mL] | EC50 (hRV-42) [µg/mL] | EC50 (hRV-39) [µg/mL] | EC50 (hRV-41) [µg/mL] | EC50 (hRV-15) [µg/mL] | EC50 (hRV-14) [µg/mL] | EC50 (hRV-9) [µg/mL] | EC50 (hRV-86) [µg/mL] | EC50 (hRV-72) [µg/mL] | EC50 (hRV-29) [µg/mL] | EC50 (hRV-63) [µg/mL] | EC50 (hRV-70) [µg/mL] | EC50 (hRV-85) [µg/mL] | CC50 [1] [µg/mL]
1 | Nc1nc(N2CCN(C(=O)COc3ccc(Cl)cc3)CC2)c2nc(CCCc3ccc(F)cc3)sc2n1 [Example 290, 1-(4-(5-amino-2-(3-(4-fluorophenyl)propyl)thiazolo[5,4-d]pyrimidin-7-yl)piperazin-1-yl)-2-(4-chlorophenoxy)ethanone] | 49.2 (≈ 91 µM) | > 50 | > 50 | > 50 | > 50 | > 50 | > 50 | > 50 | > 50 | > 50 | > 50 | > 50 | > 50 | 19.4 (≈ 35.8 µM) | > 50
2 | Nc1nc(N2CCN(C(=O)COc3ccc(F)cc3)CC2)c2nc(-c3ccc(F)cc3)sc2n1 [Example 233, 1-(4-(5-amino-2-(4-fluorophenyl)thiazolo[5,4-d]pyrimidin-7-yl)piperazin-1-yl)-2-(4-fluorophenoxy)ethanone] | < 0.02 | < 0.39 | < 0.39 | < 0.02 | < 0.39 | < 0.02 | < 0.02 | < 0.02 | < 0.39 | 0.88 (≈ 1.82 µM) | < 0.02 | < 0.39 | < 0.39 | < 0.39 | > 50
3 | Nc1nc(N2CCN(C(=O)COc3ccc(O)cc3)CC2)c2nc(CCc3ccc(F)cc3)sc2n1 [Example 224, 1-(4-(5-amino-2-(4-fluorophenethyl)thiazolo[5,4-d]pyrimidin-7-yl)piperazin-1-yl)-2-(4-hydroxyphenoxy)ethanone] | 0.66 (≈ 1.3 µM) | 4.55 (≈ 8.95 µM) | > 50 | 0.32 (≈ 0.629 µM) | 2.26 (≈ 4.44 µM) | 2.32 (≈ 4.56 µM) | 3.44 (≈ 6.76 µM) | 0.89 (≈ 1.75 µM) | 20 (≈ 39.4 µM) | > 50 | 0.49 (≈ 0.963 µM) | 25.4 (≈ 49.8 µM) | 8.62 (≈ 16.9 µM) | 2.09 (≈ 4.11 µM) | > 50
4 | Nc1nc(N2CCN(C(=O)COc3ccc(Br)cc3)CC2)c2nc(-c3ccc(F)cc3)sc2n1 [Example 235, 1-(4-(5-amino-2-(4-fluorophenyl)thiazolo[5,4-d]pyrimidin-7-yl)piperazin-1-yl)-2-(4-bromophenoxy)ethanone] | < 0.02 | < 0.39 | < 0.39 | < 0.02 | < 0.39 | < 0.02 | 0.04 (≈ 0.0736 µM) | < 0.02 | 0.58 (≈ 1.07 µM) | 0.65 (≈ 1.2 µM) | < 0.02 | < 0.39 | < 0.39 | < 0.39 | > 50
5 | CC(=O)c1ccc(OCC(=O)N2CCN(c3nc(N)nc4sc(CCc5ccc(F)cc5)nc34)CC2)cc1 [Example 227, 2-(4-acetylphenoxy)-1-(4-(5-amino-2-(4-fluorophenethyl)thiazolo[5,4-d]pyrimidin-7-yl)piperazin-1-yl)ethanone] | 0.26 (≈ 0.486 µM) | 35.4 (≈ 66.1 µM) | > 50 | 0.3 (≈ 0.561 µM) | > 50 | > 50 | > 50 | 0.56 (≈ 1.05 µM) | 4.59 (≈ 8.59 µM) | > 50 | 4.8 (≈ 8.98 µM) | 30.6 (≈ 57.2 µM) | > 50 | 2.19 (≈ 4.1 µM) | > 50
6 | COc1ccc(CCc2nc3c(N4CCN(C(=O)COc5ccc(Br)cc5)CC4)nc(N)nc3s2)cc1OC [Example 256, 1-(4-(5-amino-2-(3,4-dimethoxyphenethyl)thiazolo[5,4-d]pyrimidin-7-yl)piperazin-1-yl)-2-(4-bromophenoxy)ethanone] | 2.07 (≈ 3.37 µM) | > 50 | 5.22 (≈ 8.51 µM) | 1.8 (≈ 2.93 µM) | > 50 | > 50 | 2.81 (≈ 4.58 µM) | 4.05 (≈ 6.6 µM) | 4.86 (≈ 7.92 µM) | 6.89 (≈ 11.2 µM) | 4.06 (≈ 6.62 µM) | 32.9 (≈ 53.6 µM) | 5.97 (≈ 9.73 µM) | 9.48 (≈ 15.5 µM) | > 50
7 | COc1ccc(OCC(=O)N2CCN(c3nc(N)nc4sc(CCc5ccc(Br)cc5)nc34)CC2)cc1 [Example 298, 1-(4-(5-amino-2-(4-bromophenethyl)thiazolo[5,4-d]pyrimidin-7-yl)piperazin-1-yl)-2-(4-methoxyphenoxy)ethanone] | 0.45 (≈ 0.771 µM) | 4.56 (≈ 7.81 µM) | 1.2 (≈ 2.06 µM) | 0.45 (≈ 0.771 µM) | 10.4 (≈ 17.8 µM) | 1.61 (≈ 2.76 µM) | 1.23 (≈ 2.11 µM) | 0.55 (≈ 0.943 µM) | 4.58 (≈ 7.85 µM) | 6.52 (≈ 11.2 µM) | 0.89 (≈ 1.53 µM) | 3.9 (≈ 6.68 µM) | 4.71 (≈ 8.07 µM) | 2.21 (≈ 3.79 µM) | > 50
8 | COc1ccc(OCC(=O)N2CCN(c3nc(N)nc4sc(CCc5ccc(OC)c(OC)c5)nc34)CC2)cc1 [Example 257, 1-(4-(5-amino-2-(3,4-dimethoxyphenethyl)thiazolo[5,4-d]pyrimidin-7-yl)piperazin-1-yl)-2-(4-methoxyphenoxy)ethanone] | 3.01 (≈ 5.33 µM) | 30.8 (≈ 54.6 µM) | 5.09 (≈ 9.01 µM) | 2.26 (≈ 4 µM) | 31.1 (≈ 55.1 µM) | 46.2 (≈ 81.9 µM) | 2.32 (≈ 4.11 µM) | 3.69 (≈ 6.53 µM) | 4.79 (≈ 8.48 µM) | 5.95 (≈ 10.5 µM) | 14.9 (≈ 26.3 µM) | 26.4 (≈ 46.8 µM) | 7.1 (≈ 12.6 µM) | 8.05 (≈ 14.3 µM) | > 50
9 | COc1ccc(OCC(=O)N2CCN(c3nc(N)nc4sc(CCCCc5ccc(F)cc5)nc34)CC2)cc1 [Example 293, 1-(4-(5-amino-2-(4-(4-fluorophenyl)butyl)thiazolo[5,4-d]pyrimidin-7-yl)piperazin-1-yl)-2-(4-methoxyphenoxy)ethanone] | 12.4 (≈ 22.5 µM) | 35.4 (≈ 64.2 µM) | > 50 | > 50 | > 50 | > 50 | > 50 | > 50 | > 50 | > 50 | > 50 | 21.2 (≈ 38.4 µM) | > 50 | 11.5 (≈ 20.9 µM) | > 50
10 | CC(C)(C)OC(=O)N[C@@H]1CCN(c2nc(N)nc3sc(-c4ccc(F)cc4)cc23)C1 [Example 338, (R)-tert-butyl 1-(2-amino-6-(4-fluorophenyl)thieno[2,3-d]pyrimidin-4-yl)pyrrolidin-3-ylcarbamate] | 0.37 (≈ 0.861 µM) | 4.23 (≈ 9.85 µM) | 5.65 (≈ 13.2 µM) | 0.38 (≈ 0.885 µM) | 27.4 (≈ 63.7 µM) | 1.52 (≈ 3.54 µM) | 1.11 (≈ 2.58 µM) | 0.78 (≈ 1.82 µM) | 2.37 (≈ 5.52 µM) | 4.96 (≈ 11.5 µM) | 0.39 (≈ 0.908 µM) | 8.43 (≈ 19.6 µM) | 3.65 (≈ 8.5 µM) | 2.17 (≈ 5.05 µM) | > 50
